Measurements taken from patent EP0037516A1, “N-omega substituted derivatives of 1-Desamino-vasopressin analogs” (VEGA LABORATORIES, INC., priority 1980, dated 1981).
Marks after values point to notes of the source that are not given here. Where a SMILES comes first, the peptide text is derived from it. Bridges are numbered along the chain shown (N, C = ends). [ ]: non-standard residue; d: D form. Mpa = O=C(O)CCS

Experiments:
Factor VIII [1] = experiment: Factor VIII releasing activity in pentothal-anesthetized dogs, standard clotting assay; assay type: in vivo; settings: for Factor VIII Releasing Activity: dogs
Description: The 9-Ala-NH2 analogs of Examples XII and XIII were evaluated for ability to stimulate production of Factor VIII by administration to pentothal-anesthestized dogs. These analogs, as well as desmopressin used as a control, were administered i.v. into the external jugular vein at a dose of 10 meg/kg body weight. Factor VIII analysis was performed by standard clotting assay (using normal dog plasma as 100% clotting and severely hemophilic dog plasma as 0% for the standard curve) just prior to injection, and at periodic intervals for up to 4 hours after injection.

Factor VIII [2] = experiment: Factor VIII release, clotting assay in male canine citrated plasma; assay type: in vivo; settings: for Factor VIII Releasing Activity: male canine citrated plasma, calibrated against desmopressin
Description: Pressor and antidiuretic assays of the compounds of Examples I-IV were carried out in 200g body weight, male Sprague-Dawley rats using the techniques reported by Schaechtelin et al in "Enhancement of the Activity of Angiotensin II by Certain Cations," Molec. Pharmacol., 10, 57-67 (1974) and Cort et al in "Role of the Disulfide Bridge and the C-Terminal Tripeptide in the Anti-diuretic Action of Vasopressin in Man and the Rat", Kidney Internat. , 8, 292-302 (1975), with calibration of responses against a 3-point curve using highly purified arginine-vasopressin of known activity. Similar tests were performed on known vasopressin analogs for purposes of comparison. In addition, the release of Factor VIII by the compounds of Examples I-IV was tested in male canine citrated plasna using the clotting assay described by Prowse et al, in Brit. J. Haematol., 41, 437 (1979), and the results were calibrated against the Factor VIII releasing activity of desmopressin. In all cases, the half-lives of the responses were compared to the standard at equi-peak-potent levels.

[3] = Antidiuretic assay in rats, calibrated against arginine-vasopressin; assay type: in vivo, male Sprague-Dawley rats
[4] = Pressor assay in rats, calibrated against arginine-vasopressin; assay type: in vivo, male Sprague-Dawley rats
[5] = 200g male Sprague-Dawley rats, calibrated against arginine-vasopressin

Row | Compound | Factor VIII Releasing Activity (Factor VIII [1]; 15 min. after i.v. 10 meg/kg) [%] | Factor VIII Releasing Activity (Factor VIII [1]; 60 min. after i.v. 10 meg/kg) [%] | Factor VIII Releasing Activity (Factor VIII [1]; 120 min. after i.v. 10 meg/kg) [%] | Factor VIII Releasing Activity (Factor VIII [1]; 240 min. after i.v. 10 meg/kg) [%] | Factor VIII Releasing Activity (Factor VIII [1]; Pre-Injection, normal dog plasma = 100% clotting) [%] | Factor VIII releasing activity (in words) (Factor VIII [1]; comment on Table 6, 4 hours after injection) | Factor VIII Releasing Activity (Factor VIII [2]) [%] | Peak Potency (antidiuretic activity) [3, 5] [IU/mg] | Mean Peak Potency (Product) F ([3]; antidiuretic activity, peak potency multiplied by F) | Ratio of Half-Life of Compound to Parent Half-Life (F) ([3]; antidiuretic response, as compared to 1-desamino-[8-Lys]-vasopressin (footnote *)) | antidiuretic activity (in words) ([3]; comment on Table 4) | Factor VIII releasing activity (in words) (Factor VIII [2]; comment on Table 5) | Peak Potency (pressor activity) [4, 5] [IU/mg] | pressor activity (in words) ([4]; comment on Table 3)
1 | Desmopressin [reference compound] | 125 | 185 | 125 | 105 | 98 | substantially decreased to zero at 4 hours | 250 |  |  |  |  |  |  | 
2 | CC[C@H](C)[C@@H]1NC(=O)[C@H](Cc2ccc(O)cc2)NC(=O)CCSSC[C@@H](C(=O)N2CCC[C@H]2C(=O)N[C@H](CCCCNC(=O)CN)C(=O)NCC(N)=O)NC(=O)[C@H](CC(N)=O)NC(=O)[C@H](CCC(N)=O)NC1=O [Example III, 1-Desamino-[8-D-N^ε-Lys(Gly)]-Vasotocin] ([Mpa]YIQNCP[dK](Gly)G-NH2; disulfide 1-6) |  |  |  |  |  |  | 165 | 290 | 1508 | 5.2* | considerable antidiuretic activity | significant activity in releasing Factor VIII | 0.1 | substantially devoid of pressor activity
